Test system: PD1/PD-L1 pathway
Assay: PD1/PD-L1 Blockade Bioassay, inhibition of the PD1/PD-L1 pathway at the cellular level (luciferase reporter, PD-1 Jukat T cells co-cultured with PD-L1 aAPC/CHO-K1 cells)
Type: cell-based
Settings: T-cell; for EC50: PD-1 Jukat T cells + PD-L1 aAPC/CHO-K1 cells, 6 h co-culture, ONE-Glo luciferase readout; for Emax: maximum % Activity relative to atezolizumab (set to 100%)
Description: Experiment 1: Detecting the Inhibitory Activity of Compounds on the PD1/PD-L1 Pathway at the Cellular Level Using the PD1/PD-L1 Blockade Bioassay Method
PD-1 Jukat T cells were revived and cultured with 1640 medium containing 100 μg/mL Hygromycin B, […] Puromycin, 10% FBS and 1% dual antibody; PD-L1 aAPC/CHO-K1 cells were revived and cultured with F12K medium containing 100 μg/mL Hygromycin B, 200 μg/mL G418, 10% FBS and 1% dual antibody.
The revived cells need to be passaged 2-3 times. When the cells enter the exponential growth phase with good growth status, the PD-L1 aAPC/CHO-K1 was digested with trypsin, and the cells were resuspended in F12K containing 5% FBS and adjusted to a density of 5×10^5 cells/mL. 20 μl/well were plated in a 384-well plate (10,000 cells/well) and incubated in an incubator overnight for 16-20 h.
a Preparation of compound stock solution: Dissolve the compound to be tested in DMSO to prepare a 20 mM stock solution.
b Compound gradient dilution: dilute the compound in 1640 medium containing 5% FBS without antibiotics or phenol red, and make 3-fold gradient dilutions to prepare 10 concentration gradients (2×).
c Adding drugs: Take out the cell culture plate, discard the supernatant, add 20 μl/well of the prepared compound, and incubate in the incubator for 1.5 h.
PD-1 Jukat T cells were collected, washed once with PBS, and resuspended in 1640 medium containing 5% FBS without antibiotics or phenol red. The density was adjusted to 1×10^6 cells/mL. 20 μl PD-1 Jukat T cells (20,000 cells/well) were added to each well and incubated in the incubator for 6 h.
ONE-Glo™ Luciferase Assay reagent was thawed to room temperature in advance and then added to a 384-well plate at 40 µl/well. Incubate in the dark for 15 minutes and read the […] signal on a plate reader.
[formula] • Among them, % Activity: % Activity • RLU: Resulting Luminescence unit • RLUvehicle: Average RLU value of negative control wells on each plate • RLUpositive: Average RLU value of positive control wells on each plate • Vehicle control: DMSO (0.1%) corresponding to the test value was used as negative control (its % Activity was 0%); • Positive control: The highest detection value at the atezolizumab administration concentration was used as the positive control (its % Activity was 100%). • (2) EC50 value calculation method: The EC50 value was obtained by the nonlinear fitting formula of Graph Pad Prism 8.0 software. The calculation formula is as follows:
Y=Bottom+(Top−Bottom)/(1+10^((Log EC50−X)×HillSlope)) • X: log of activator concentration (logarithm of compound concentration); Y: % Activity • (3) Emax definition: The maximum % Activity value corresponding to the maximum activation value of the compound relative to atezolizumab (the activation value is set to 100%).

Row | EC50 | Structure (SMILES) | Emax
1 | 60.7 nM | COc1nc(-c2cccc(-c3cccc(Nc4nc(C(F)F)nc5cc(CN6CC[C@](C)(O)C6)cnc45)c3C)c2Cl)cnc1CN(C)[C@H]1CC[C@H](C(=O)O)CC1 [Example 46, (1r,4r)-4-(((5-(2-chloro-3′-((2-(difluoromethyl)-7-(((S)-3-hydroxy-3-methylpyrrolidin-1-yl)methyl)pyrido[3,2-d]pyrimidin-4-yl)amino)-2′-methyl-[1,1′-biphenyl]-3-yl)-3-methoxypyrazin-2-yl)methyl)(methyl)amino)cyclohexane-1-carboxylic acid] | 86.7%
2 | 99.1 nM | COc1nc(-c2cccc(-c3cccc(Nc4nc(C(F)F)nc5cc(CN6CC[C@H](O)C6)cnc45)c3C)c2Cl)cnc1CN1CC[C@H](O)C1 [Example 50, (S)-1-((5-(2-chloro-3′-((2-(difluoromethyl)-7-(((S)-3-hydroxypyrrolidin-1-yl)methyl)pyrido[3,2-d]pyrimidin-4-yl)amino)-2′-methyl-[1,1′-biphenyl]-3-yl)-3-methoxypyrazin-2-yl)methyl)pyrrolidin-3-ol] | 96%
3 | 99.1 nM | COc1nc(-c2cccc(-c3cccc(Nc4nc(C(F)F)nc5cc(CN6CC[C@H](O)C6)cnc45)c3C)c2Cl)cnc1CN[C@@H]1CCOC[C@@H]1O [Example 51, (S)-1-((4-((2′-chloro-3′-(5-((((3R,4R)-3-hydroxytetrahydro-2H-pyran-4-yl)amino)methyl)-6-methoxypyrazin-2-yl)-2-methyl-[1,1′-biphenyl]-3-yl)amino)-2-(difluoromethyl)pyrido[3,2-d]pyrimidin-7-yl)methyl)pyrrolidin-3-ol] | 96%
4 | 75.8 nM | COc1nc(-c2cccc(-c3cccc(Nc4nc(C(F)F)nc5cc(CN6CC[C@@H](O)C6)cnc45)c3C)c2Cl)cnc1CN(C)[C@H]1CC[C@H](C(=O)O)C1 [Example 52, (1S,3S)-3-(((5-(2-chloro-3′-((2-(difluoromethyl)-7-(((R)-3-hydroxypyrrolidin-1-yl)methyl)pyrido[3,2-d]pyrimidin-4-yl)amino)-2′-methyl-[1,1′-biphenyl]-3-yl)-3-methoxypyrazin-2-yl)methyl)(methyl)amino)cyclopentane-1-carboxylic acid] | 74.3%

Further lines, the compound ahead of its results:

Row | Structure (SMILES) | EC50 | Emax
5 | COc1nc(-c2cccc(-c3cccc(Nc4nc(C(F)F)nc5cc(CN6CC[C@@](C)(O)C6)cnc45)c3C)c2Cl)cnc1CN(C)[C@H]1CC[C@H](C(=O)O)CC1 [Example 29, (1r,4r)-4-(((5-(2-chloro-3′-((2-(difluoromethyl)-7-(((R)-3-hydroxy-3-methylpyrrolidin-1-yl)methyl)pyrido[3,2-d]pyrimidin-4-yl)amino)-2′-methyl-[1,1′-biphenyl]-3-yl)-3-methoxypyrazin-2-yl)methyl)(methyl)amino)cyclohexane-1-carboxylic acid] | 42.9 nM | 89%
6 | [2H]C([2H])([2H])N(Cc1ncc(-c2cccc(-c3cccc(Nc4nc(C(F)F)nc5cc(CN6CC[C@@H](O)C6)cnc45)c3C)c2Cl)nc1OC)[C@H]1CC[C@H](C(=O)O)CC1 [Example 32, (1r,4r)-4-(((5-(2-chloro-3′-((2-(difluoromethyl)-7-(((R)-3-hydroxypyrrolidin-1-yl)methyl)pyrido[3,2-d]pyrimidin-4-yl)amino)-2′-methyl-[1,1′-biphenyl]-3-yl)-3-methoxypyrazin-2-yl)methyl)(methyl-d3)amino)cyclohexane-1-carboxylic acid] | 76.3 nM | 84.1%
7 | COc1nc(-c2cccc(-c3cccc(Nc4nc(C(F)F)nc5cc(CN6CC[C@@H](O)C6)cnc45)c3C)c2Cl)cnc1CN[C@H]1CC[C@H](C(=O)O)CC1 [Example 33, (1r,4r)-4-(((5-(2-chloro-3′-((2-(difluoromethyl)-7-(((R)-3-hydroxypyrrolidin-1-yl)methyl)pyrido[3,2-d]pyrimidin-4-yl)amino)-2′-methyl-[1,1′-biphenyl]-3-yl)-3-methoxypyrazin-2-yl)methyl)amino)cyclohexane-1-carboxylic acid] | 58.6 nM | 95.3%
8 | COc1nc(-c2cccc(-c3cccc(Nc4nc(C(F)F)nc5cc(CN6CC[C@@H](O)C6)cnc45)c3Cl)c2Cl)cnc1CN(C)[C@H]1CC[C@H](C(=O)O)CC1 [Example 35, (1r,4r)-4-(((5-(2,2′-dichloro-3′-((2-(difluoromethyl)-7-(((R)-3-hydroxypyrrolidin-1-yl)methyl)pyrido[3,2-d]pyrimidin-4-yl)amino)-[1,1′-biphenyl]-3-yl)-3-methoxypyrazin-2-yl)methyl)(methyl)amino)cyclohexane-1-carboxylic acid] | 46.1 nM | 102%
9 | O=C(O)C1CCN(Cc2ccnc(Nc3cccc(-c4cccc(Nc5nc(C(F)F)nc6cc(CN7CC[C@@H](O)C7)cnc56)c4Cl)c3Cl)c2F)CC1 [Example 36, (R)-1-((2-((2,2′-dichloro-3′-((2-(difluoromethyl)-7-((3-hydroxypyrrolidin-1-yl)methyl)pyrido[3,2-d]pyrimidin-4-yl)amino)-[1,1′-biphenyl]-3-yl)amino)-3-fluoropyridin-4-yl)methyl)piperidine-4-carboxylic acid] | 55.5 nM | 85%
10 | COc1nc(-c2cccc(-c3cccc(Nc4nc(C(F)F)nc5cc(CN6CCC[C@H]6C)cnc45)c3C)c2Cl)cnc1CN(C)[C@H]1CC[C@H](C(=O)O)CC1 [Example 41] | 90.6 nM | 79%
11 | COc1nc(-c2cccc(-c3cccc(Nc4nc(C(F)F)nc5cc(CN6CC[C@@H](OC(F)F)C6)cnc45)c3C)c2Cl)cnc1CN(C)[C@H]1CC[C@H](C(=O)O)CC1 [Example 42, (1r,4r)-4-(((5-(2-chloro-3′-((7-(((R)-3-(difluoromethoxy)pyrrolidin-1-yl)methyl)-2-(difluoromethyl)pyrido[3,2-d]pyrimidin-4-yl)amino)-2′-methyl-[1,1′-biphenyl]-3-yl)-3-methoxypyrazin-2-yl)methyl)(methyl)amino)cyclohexane-1-carboxylic acid] | 90.9 nM | 74%
12 | COc1nc(-c2cccc(-c3cccc(Nc4nc(C(F)F)nc5cc(CN6CC[C@H]([C@@H](C)O)C6)cnc45)c3C)c2Cl)cnc1CN(C)[C@H]1CC[C@H](C(=O)O)CC1 [Example 44, (1r,4r)-4-(((5-(2-chloro-3′-((2-(difluoromethyl)-7-(((S)-3-((R)-1-hydroxyethyl)pyrrolidin-1-yl)methyl)pyrido[3,2-d]pyrimidin-4-yl)amino)-2′-methyl-[1,1′-biphenyl]-3-yl)-3-methoxypyrazin-2-yl)methyl)(methyl)amino)cyclohexane-1-carboxylic acid] | 84.5 nM | 69%
13 | COc1nc(-c2cccc(-c3cccc(Nc4nc(C(F)F)nc5cc(CN6CC[C@H]([C@H](C)O)C6)cnc45)c3C)c2Cl)cnc1CN(C)[C@H]1CC[C@H](C(=O)O)CC1 [Example 45, (1r,4r)-4-(((5-(2-chloro-3′-((2-(difluoromethyl)-7-(((S)-3-((S)-1-hydroxyethyl)pyrrolidin-1-yl)methyl)pyrido[3,2-d]pyrimidin-4-yl)amino)-2′-methyl-[1,1′-biphenyl]-3-yl)-3-methoxypyrazin-2-yl)methyl)(methyl)amino)cyclohexane-1-carboxylic acid] | 94.7 nM | 87.3%

From patent US20260234140A1, “PYRIDOPYRIMIDINE DERIVATIVE AND USE THEREOF” (SUNSHINE LAKE PHARMA CO., LTD., priority 2023, published 2026)
